Measured values published in patent US20170275298A1, “INHIBITORS OF THE RENAL OUTER MEDULLARY POTASSIUM CHANNEL” (Merck Sharp & Dohme Corp., priority 2014, published 2017).

Biological target: T1, hROMK (hKir1.1) (Homo sapiens, UniProt P48048)
T1 construct: expressed in transfected cells
T1 sequence (P48048 1-391): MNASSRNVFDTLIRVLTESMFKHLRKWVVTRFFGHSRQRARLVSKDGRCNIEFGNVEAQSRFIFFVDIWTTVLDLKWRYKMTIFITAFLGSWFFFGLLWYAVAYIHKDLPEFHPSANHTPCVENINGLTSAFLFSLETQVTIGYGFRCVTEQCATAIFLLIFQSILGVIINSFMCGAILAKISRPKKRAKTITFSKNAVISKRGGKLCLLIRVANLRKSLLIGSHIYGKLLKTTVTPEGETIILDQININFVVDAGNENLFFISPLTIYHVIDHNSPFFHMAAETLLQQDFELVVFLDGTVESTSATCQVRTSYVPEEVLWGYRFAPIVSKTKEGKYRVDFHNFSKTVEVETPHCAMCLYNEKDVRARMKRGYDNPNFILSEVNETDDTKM
Assay: Thallium Flux Assay (ROMK channel functional thallium flux assay)
Type: cell-based
Conditions: HEK293 cells stably expressing hROMK (hKir1.1); FluxOR thallium flux, FLIPR-Tetra, 30 min compound incubation; read-out: ROMK TI IC50
Experimental: The following Thallium Flux Assay was performed on each of the final product compounds in the Examples.
HEK293 cells stably expressing hROMK (hKir1.1) were grown at 37° C. in a 10% CO2 humidified incubator in complete growth media: Dulbecco's Modified Eagle Medium supplemented with non-essential amino acids, Penicillin/Streptomycin/Glutamine, G418 and FBS. At >80% confluency, the media was aspirated from the flask and rinsed with 10 mL calcium/magnesium-free PBS. […] To dislodge the cell, the side of the flask was gently banged with one's hand. The cells completely titrated and then the cells were transferred to 25 mL complete media, centrifuged at 1,500 rpm for 6 min followed by resuspension in complete growth media and determine cell concentration. […] Under ideal growth conditions and appropriate tissue culture practices, this cell line is stable for 40-45 passages.
• FluxOR™ Reagent (Component A) • FluxOR™ Assay Buffer (Component B)—10× Concentrate • PowerLoad™ Concentrate (Component C)—100× Concentrate • Probenecid (Component D)—Lyophilized sample is kept at −20° C. Water soluble, 100× after solubilization in 1 mL water. […] Store at 4° C. • Thallium sulfate (Tl2SO4) Concentrate (Component G)—50 mM in water. Store at 4° C. • DMSO (dimethyl sulfoxide, Component H)—1 mL (100%)
Can be stored at room temperature • Stimulant Buffer (prepared at 5× final concentration in 1×FluxOR™ Chloride-Free Buffer): 7.5 mM thallium sulfate and 0.75 mM potassium sulfate (to give a final assay concentration of 3 mM Thallium/0.3 mM potassium). Store at 4° C. when not in use. If kept sterile, this solution is good for months.
The ROMK channel functional thallium flux assay was performed in 384 wells, using the FLIPR-Tetra instrument. HEK-hKir1.1 cells were seeded in Poly-D-Lysine microplates and kept in a 37° C.-10% CO2 incubator overnight. On the day of the experiment, the growth media was replaced with the FluxOR™ reagent loading buffer and incubated, protected from light, at ambient temperature (23-25° C.) for 90 min. The loading buffer was replaced with assay buffer±test compound followed by 30 min incubation at ambient temperature, where the thallium/potassium stimulant was added to the microplate.
1. Seed HEK-hKir1.1 cells (50 μl at 20,000 cells/well) in 384-well PDL coated Microplates 2. Allow cells to adhere overnight in humidified 37° C./10% CO2 incubator 3. Completely remove cell growth media from microplate and replace with 25 μl loading buffer 4. Incubate Microplate at room temperature, protected form light, for 90 min 5. Remove loading buffer and replace with 25 μl 1× Assay Buffer±test compound. 6. Incubate microplate at room temperature, protected from light, for 30 min 7. […] Excitation=400 nm, Emission=460 & 580 nm. Collect data for ˜10 min.
The fluorescence intensity of wells containing 3 μM of a standard control ROMK inhibitor of the present invention was used to define the ROMK-sensitive component of thallium flux. Fluorescence in the presence of test compounds was normalized to control values to provide % fluorescence change.

IC50	SMILES
354 nM	CCc1nccc(N2CCC3(CCN(C[C@H](O)c4ccc5c(c4C)COC5=O)CC3)C2=O)n1 [Example 45, (R)-2-(2-ethylpyrimidin-4-yl)-8-(2-hydroxy-2-(4-methyl-1-oxo-1,3-dihydroisobenzofuran-5-yl)ethyl)-2,8-diazaspiro[4.5]decan-1-one]
485 nM	Cc1c([C@@H](O)CN2CCC3(CC2)CCN(c2ccnc(N)n2)C3=O)ccc2c1COC2=O [Example 46, (R)-2-(2-aminopyrimidin-4-yl)-8-(2-hydroxy-2-(4-methyl-1-oxo-1,3-dihydroisobenzofuran-5-yl)ethyl)-2,8-diazaspiro[4.5]decan-1-one]
58.5 nM	CNc1nccc(N2CCC3(CCN(C[C@H](O)c4ccc5c(c4C)COC5=O)CC3)C2=O)n1 [Example 47, (R)-8-(2-hydroxy-2-(4-methyl-1-oxo-1,3-dihydroisobenzofuran-5-yl)ethyl)-2-(2-(methylamino)pyrimidin-4-yl)-2,8-diazaspiro[4.5]decan-1-one]
480 nM	COc1cc(N2CCC3(CCN(C[C@H](O)c4ccc5c(c4C)COC5=O)CC3)C2=O)cnn1 [Example 50, (R)-8-(2-hydroxy-2-(4-methyl-1-oxo-1,3-dihydroisobenzofuran-5-yl)ethyl)-2-(6-methoxypyridazin-4-yl)-2,8-diazaspiro[4.5]decan-1-one]
40.6 nM	Cc1c([C@@H](O)CN2CCC3(CC2)CCN(c2ccc(=O)n(C4CC4)n2)C3=O)ccc2c1COC2=O [Example 53, (R)-2-(1-cyclopropyl-6-oxo-1,6-dihydropyridazin-3-yl)-8-(2-hydroxy-2-(4-methyl-1-oxo-1,3-dihydroisobenzofuran-5-yl)ethyl)-2,8-diazaspiro[4.5]decan-1-one]
293 nM	Cc1c([C@@H](O)CN2CCC3(CC2)CCN(c2ccc(=O)n(C(F)F)c2)C3=O)ccc2c1COC2=O [Example 54, (R)-2-(1-(difluoromethyl)-6-oxo-1,6-dihydropyridin-3-yl)-8-(2-hydroxy-2-(4-methyl-1-oxo-1,3-dihydroisobenzofuran-5-yl)ethyl)-2,8-diazaspiro[4.5]decan-1-one]
133 nM	Cc1c([C@@H](O)CN2CCC3(CC2)CCN(c2ccc(=O)n(C(F)F)n2)C3=O)ccc2c1COC2=O [Example 55, (R)-2-(1-(difluoromethyl)-6-oxo-1,6-dihydropyridazin-3-yl)-8-(2-hydroxy-2-(4-methyl-1-oxo-1,3-dihydroisobenzofuran-5-yl)ethyl)-2,8-diazaspiro[4.5]decan-1-one]
17.5 nM	Cc1cc(N2CCC3(CCN(C[C@H](O)c4ccc5c(c4C)COC5=O)CC3)C2=O)sn1 [Example 66, (R)-8-(2-hydroxy-2-(4-methyl-1-oxo-1,3-dihydroisobenzofuran-5-yl)ethyl)-2-(3-methylisothiazol-5-yl)-2,8-diazaspiro[4.5]decan-1-one]
434 nM	Cc1c([C@@H](O)CN2CCC3(CC2)CCN(c2ccncn2)C3=O)ccc2c1COC2=O [Example 67, (R)-8-(2-hydroxy-2-(4-methyl-1-oxo-1,3-dihydroisobenzofuran-5-yl)ethyl)-2-(pyrimidin-4-yl)-2,8-diazaspiro[4.5]decan-1-one]
673 nM	Cc1cc2c(cc1[C@H](O)CN1CCC3(CC1)CCN(c1ccns1)C3=O)COC2=O [Example 69, (S)-8-(2-hydroxy-2-(6-methyl-1-oxo-1,3-dihydroisobenzofuran-5-yl)ethyl)-2-(isothiazol-5-yl)-2,8-diazaspiro[4.5]decan-1-one]

The next lines start with the compound.

SMILES	IC50
Cc1c([C@@H](O)CN2CCC3(CC2)CCN(c2cnn(C)c(=O)c2)C3=O)ccc2c1COC2=O [Example 49, (R)-8-(2-hydroxy-2-(4-methyl-1-oxo-1,3-dihydroisobenzofuran-5-yl)ethyl)-2-(1-methyl-6-oxo-1,6-dihydropyridazin-4-yl)-2,8-diazaspiro[4.5]decan-1-one]	176 nM
CCn1nc(N2CCC3(CCN(C[C@H](O)c4ccc5c(c4C)COC5=O)CC3)C2=O)ccc1=O [Example 51, (R)-2-(1-ethyl-6-oxo-1,6-dihydropyridazin-3-yl)-8-(2-hydroxy-2-(4-methyl-1-oxo-1,3-dihydroisobenzofuran-5-yl)ethyl)-2,8-diazaspiro[4.5]decan-1-one]	77 nM
Cc1c([C@@H](O)CN2CCC3(CC2)CCN(c2cc(C)c(=O)n(C)n2)C3=O)ccc2c1COC2=O [Example 52, (R)-2-(1,5-dimethyl-6-oxo-1,6-dihydropyridazin-3-yl)-8-(2-hydroxy-2-(4-methyl-1-oxo-1,3-dihydroisobenzofuran-5-yl)ethyl)-2,8-diazaspiro[4.5]decan-1-one]	427 nM
Cc1c([C@@H](O)CN2CCC3(CC2)CCN(c2ccc(=O)n(C)n2)C3=O)ccc2c1COC2=O [Example 56, (R)-8-(2-hydroxy-2-(4-methyl-1-oxo-1,3-dihydroisobenzofuran-5-yl)ethyl)-2-(1-methyl-6-oxo-1,6-dihydropyridazin-3-yl)-2,8-diazaspiro[4.5]decan-1-one]	35.1 nM
Cc1c([C@@H](O)CN2CCC3(CC2)CC(=O)N(c2ccns2)C3)ccc2c1COC2=O [Example 61, (R)-8-(2-hydroxy-2-(4-methyl-1-oxo-1,3-dihydroisobenzofuran-5-yl)ethyl)-2-(isothiazol-5-yl)-2,8-diazaspiro[4.5]decan-3-one]	547 nM
CCOC(=O)c1cc(N2CCC3(CCN(C[C@H](O)c4ccc5c(c4C)COC5=O)CC3)C2=O)on1 [Example 64, (R)-ethyl 5-(8-(2-hydroxy-2-(4-methyl-1-oxo-1,3-dihydroisobenzofuran-5-yl)ethyl)-1-oxo-2,8-diazaspiro[4.5]decan-2-yl)isoxazole-3-carboxylate]	241 nM
Cc1cc2c(cc1[C@@H](O)CN1CCC3(CC1)CCN(c1ccns1)C3=O)COC2=O [Example 68, (R)-8-(2-hydroxy-2-(6-methyl-1-oxo-1,3-dihydroisobenzofuran-5-yl)ethyl)-2-(isothiazol-5-yl)-2,8-diazaspiro[4.5]decan-1-one]	221 nM
COc1cc([C@@H](O)CN2CCC3(CC2)CCN(c2ccns2)C3=O)ncc1C#N [Example 70, (S)-6-(1-hydroxy-2-(2-(isothiazol-5-yl)-1-oxo-2,8-diazaspiro[4.5]decan-8-yl)ethyl)-4-methoxynicotinonitrile]	695 nM
Cc1nsc(N2CCC3(CCN(C[C@H](O)c4ccc5c(c4C)COC5=O)CC3)C2=O)n1 [Example 71, (R)-8-(2-hydroxy-2-(4-methyl-1-oxo-1,3-dihydroisobenzofuran-5-yl)ethyl)-2-(3-methyl-1,2,4-thiadiazol-5-yl)-2,8-diazaspiro[4.5]decan-1-one]	37.1 nM
Cc1c([C@@H](O)CN2CCC3(CC2)CCN(c2cnsc2)C3=O)ccc2c1COC2=O [Example 72, (R)-8-(2-hydroxy-2-(4-methyl-1-oxo-1,3-dihydroisobenzofuran-5-yl)ethyl)-2-(isothiazol-4-yl)-2,8-diazaspiro[4.5]decan-1-one]	20 nM
Cc1c([C@@H](O)CN2CCC3(CC2)CCN(c2ccncc2F)C3=O)ccc2c1COC2=O [Example 73, (R)-2-(3-fluoropyridin-4-yl)-8-(2-hydroxy-2-(4-methyl-1-oxo-1,3-dihydroisobenzofuran-5-yl)ethyl)-2,8-diazaspiro[4.5]decan-1-one]	417 nM
